# Results from US20090239894A1, “Stabilized aqueous solutions of ergoline compounds” (priority 2008, published 2009).
# Read-outs that look alike come from different tables or passages of the source.
# Key:
# [1] = propylene glycol as low-dose additive (less than 10%)
# [2] = 9% propylene glycol; for Average area (percent of lisuride peak area relative to total peak area): no buffer
# Protocol: An aqueous solution of lisuride hydrogen maleate which additionally contained 9% propylene glycol was investigated. The active ingredient concentration was adjusted to 2 mg per 3 mL. No buffer system was added. The remaining procedure included weighing 33.3 mg of the active ingredient into a scaled 50 mL flask, then adding the propylene glycol (4.5 g) and also adding 40 mL water. The flask was agitated for several minutes and then exposed to ultrasound until the active ingredient was completely dissolved. The flask was cooled to room temperature and topped off with double-distilled water up to the mark.
# The solution was poured into transparent glass ampoules with a volume of 1 mL. These ampoules were sealed airtight and wrapped with aluminum foil to protect them from light. The ampoules were each stored at 6-8° C., 25° C. and 40° C.
# [3] = Protocol: Solutions of lisuride hydrogen maleate with a concentration of 2 mg active ingredient per 3 mL solution were investigated with regard to their temperature-dependent stability. These solutions were buffered using a citrate buffer system, so that the pH value of the pure medium was adjusted to 5.1, 4.5 and 3.5. Aqueous solutions of citric acid monohydrate and trisodium citrate dihydrate (0.53 mM each) were prepared.
# Suitable mixing of these solutions yielded aqueous buffer systems with a pH of 4.5 and/or 3.5. After 33.3 mg lisuride hydrogen maleate had been weighed out in a scaled 50 mL flask, 40 mL of the corresponding buffer medium was added. The flasks were agitated for several minutes and then exposed to ultrasound for several minutes until the active ingredient was completely dissolved. The solutions were cooled to room temperature and topped off to the mark with buffer medium.
# In the case of the more strongly basic medium (pH 5.1), a supply solution was prepared, containing citric acid monohydrate (0.38 mM) and trisodium citrate dihydrate (0.68 mM). This was used to dissolve the active ingredient. In principle, double-distilled water was used to prepare the solutions.
# The resulting solutions were stored under three different conditions: under refrigeration at 6 to 8° C., at room temperature (25° C.) and at an elevated temperature of 40° C. The solutions were stored in sealed glass ampoules which were wrapped with aluminum foil for protection from light. After suitable intervals of time, samples were analyzed by means of a specific reverse phase HPLC method with UV detection (running time 30 min, retention time of lisuride ˜13 min).
# [4] = 60° C., one week, dark
# Protocol: The additives used were propylene glycol and Cremophor ELP in concentrations between 1.00% and 10.00%.
# The solutions were prepared by analogy with the procedure used in examples 1 and 2.
# The solutions were stored in the dark in glass containers at 60° C. for one week.
smiles,measurement,setting,value
CCN(CC)C(=O)N[C@H]1C=C2c3cccc4[nH]cc(c34)C[C@H]2N(C)C1.O=C(O)/C=C\C(=O)O [lisuride hydrogen maleate],solubility of the active ingredient with propylene glycol,[1],improved solubility
same,discoloration of the solutions,[2]; elevated temperature,slight yellow discoloration was observed only after a storage time of 90 days
same,Average area (percent of lisuride peak area relative to total peak area),"[2]; 6-8° C., t 0 d",99.80%
same,Average area (percent of lisuride peak area relative to total peak area),"[2]; 6-8° C., t 7 d",99.79%
same,Average area (percent of lisuride peak area relative to total peak area),"[2]; 6-8° C., t 30 d",99.67%
same,Average area (percent of lisuride peak area relative to total peak area),"[2]; 6-8° C., t 90 d",99.52%
same,Average area (percent of lisuride peak area relative to total peak area),"[2]; 6-8° C., t 180 d",99.36%
same,Average area (percent of lisuride peak area relative to total peak area),"[2]; 25° C., t 0 d",99.80%
same,Average area (percent of lisuride peak area relative to total peak area),"[2]; 25° C., t 7 d",99.79%
same,Average area (percent of lisuride peak area relative to total peak area),"[2]; 25° C., t 30 d",99.46%
same,Average area (percent of lisuride peak area relative to total peak area),"[2]; 25° C., t 90 d",99.15%
same,Average area (percent of lisuride peak area relative to total peak area),"[2]; 25° C., t 180 d",98.35%
same,Average area (percent of lisuride peak area relative to total peak area),"[2]; 40° C., t 0 d",99.80%
same,Average area (percent of lisuride peak area relative to total peak area),"[2]; 40° C., t 7 d",99.33%
same,Average area (percent of lisuride peak area relative to total peak area),"[2]; 40° C., t 30 d",97.59%
same,Average area (percent of lisuride peak area relative to total peak area),"[2]; 40° C., t 90 d",94.06%
same,Average area (percent of lisuride peak area relative to total peak area),"[2]; 40° C., t 180 d",89.76%
same,active ingredient decomposed,"[2]; refrigeration, 180 days",approximately 0.4%
same,remaining active ingredient content in comparison with the initial concentration,"[2]; room temperature, 180 days",98.4%
same,active ingredient decomposed,[2]; storage at 40° C.,approximately 10%
same,stability compared with solutions without propylene glycol (Example 1),"[2]; 6-8° C., 25° C. and 40° C.",significantly more stable
same,Average area (percent of lisuride peak area relative to total peak area),"[3]; citrate buffer pH 3.5, 6-8° C., t 0 d",99.87%
same,Average area (percent of lisuride peak area relative to total peak area),"[3]; citrate buffer pH 3.5, 6-8° C., t 7 d",99.92%
same,Average area (percent of lisuride peak area relative to total peak area),"[3]; citrate buffer pH 3.5, 6-8° C., t 30 d",99.80%
same,Average area (percent of lisuride peak area relative to total peak area),"[3]; citrate buffer pH 3.5, 6-8° C., t 90 d",99.57%
same,Average area (percent of lisuride peak area relative to total peak area),"[3]; citrate buffer pH 3.5, 6-8° C., t 180 d",99.22%
same,Average area (percent of lisuride peak area relative to total peak area),"[3]; citrate buffer pH 3.5, 25° C., t 0 d",99.87%
same,Average area (percent of lisuride peak area relative to total peak area),"[3]; citrate buffer pH 3.5, 25° C., t 7 d",99.89%
same,Average area (percent of lisuride peak area relative to total peak area),"[3]; citrate buffer pH 3.5, 25° C., t 30 d",99.37%
same,Average area (percent of lisuride peak area relative to total peak area),"[3]; citrate buffer pH 3.5, 25° C., t 90 d",98.70%
same,Average area (percent of lisuride peak area relative to total peak area),"[3]; citrate buffer pH 3.5, 25° C., t 180 d",94.14%
same,Average area (percent of lisuride peak area relative to total peak area),"[3]; citrate buffer pH 3.5, 40° C., t 0 d",99.87%
same,Average area (percent of lisuride peak area relative to total peak area),"[3]; citrate buffer pH 3.5, 40° C., t 7 d",98.89%
same,Average area (percent of lisuride peak area relative to total peak area),"[3]; citrate buffer pH 3.5, 40° C., t 30 d",90.41%
same,Average area (percent of lisuride peak area relative to total peak area),"[3]; citrate buffer pH 3.5, 40° C., t 90 d",73.37%
same,Average area (percent of lisuride peak area relative to total peak area),"[3]; citrate buffer pH 3.5, 40° C., t 180 d",69.91%
same,Average area (percent of lisuride peak area relative to total peak area),"[3]; citrate buffer pH 4.5, 6-8° C., t 0 d",99.79%
same,Average area (percent of lisuride peak area relative to total peak area),"[3]; citrate buffer pH 4.5, 6-8° C., t 7 d",99.88%
same,Average area (percent of lisuride peak area relative to total peak area),"[3]; citrate buffer pH 4.5, 6-8° C., t 30 d",99.73%
same,Average area (percent of lisuride peak area relative to total peak area),"[3]; citrate buffer pH 4.5, 6-8° C., t 90 d",99.75%
same,Average area (percent of lisuride peak area relative to total peak area),"[3]; citrate buffer pH 4.5, 6-8° C., t 180 d",99.11%
same,Average area (percent of lisuride peak area relative to total peak area),"[3]; citrate buffer pH 4.5, 25° C., t 0 d",99.79%
same,Average area (percent of lisuride peak area relative to total peak area),"[3]; citrate buffer pH 4.5, 25° C., t 7 d",99.84%
same,Average area (percent of lisuride peak area relative to total peak area),"[3]; citrate buffer pH 4.5, 25° C., t 30 d",99.26%
same,Average area (percent of lisuride peak area relative to total peak area),"[3]; citrate buffer pH 4.5, 25° C., t 90 d",98.14%
same,Average area (percent of lisuride peak area relative to total peak area),"[3]; citrate buffer pH 4.5, 25° C., t 180 d",95.90%
same,Average area (percent of lisuride peak area relative to total peak area),"[3]; citrate buffer pH 4.5, 40° C., t 0 d",99.79%
same,Average area (percent of lisuride peak area relative to total peak area),"[3]; citrate buffer pH 4.5, 40° C., t 7 d",98.82%
same,Average area (percent of lisuride peak area relative to total peak area),"[3]; citrate buffer pH 4.5, 40° C., t 30 d",94.96%
same,Average area (percent of lisuride peak area relative to total peak area),"[3]; citrate buffer pH 4.5, 40° C., t 90 d",90.39%
same,Average area (percent of lisuride peak area relative to total peak area),"[3]; citrate buffer pH 4.5, 40° C., t 180 d",87.71%
same,Average area (percent of lisuride peak area relative to total peak area),"[3]; citrate buffer pH 5.1, 6-8° C., t 0 d",100.00%
same,Average area (percent of lisuride peak area relative to total peak area),"[3]; citrate buffer pH 5.1, 6-8° C., t 7 d",99.90%
same,Average area (percent of lisuride peak area relative to total peak area),"[3]; citrate buffer pH 5.1, 6-8° C., t 30 d",99.72%
same,Average area (percent of lisuride peak area relative to total peak area),"[3]; citrate buffer pH 5.1, 6-8° C., t 90 d",99.59%
same,Average area (percent of lisuride peak area relative to total peak area),"[3]; citrate buffer pH 5.1, 6-8° C., t 180 d",99.29%
same,Average area (percent of lisuride peak area relative to total peak area),"[3]; citrate buffer pH 5.1, 25° C., t 0 d",100.00%
same,Average area (percent of lisuride peak area relative to total peak area),"[3]; citrate buffer pH 5.1, 25° C., t 7 d",99.79%
same,Average area (percent of lisuride peak area relative to total peak area),"[3]; citrate buffer pH 5.1, 25° C., t 30 d",99.36%
same,Average area (percent of lisuride peak area relative to total peak area),"[3]; citrate buffer pH 5.1, 25° C., t 90 d",98.64%
same,Average area (percent of lisuride peak area relative to total peak area),"[3]; citrate buffer pH 5.1, 25° C., t 180 d",95.45%
same,Average area (percent of lisuride peak area relative to total peak area),"[3]; citrate buffer pH 5.1, 40° C., t 0 d",100.00%
same,Average area (percent of lisuride peak area relative to total peak area),"[3]; citrate buffer pH 5.1, 40° C., t 7 d",98.86%
same,Average area (percent of lisuride peak area relative to total peak area),"[3]; citrate buffer pH 5.1, 40° C., t 30 d",94.71%
same,Average area (percent of lisuride peak area relative to total peak area),"[3]; citrate buffer pH 5.1, 40° C., t 90 d",90.99%
same,Average area (percent of lisuride peak area relative to total peak area),"[3]; citrate buffer pH 5.1, 40° C., t 180 d",87.98%
same,decomposition of the active ingredient,"[3]; citrate-buffered (pH 5.1, 4.5, 3.5), room temperature, within 180 days",5%
same,decomposition of the active ingredient,"[3]; citrate-buffered, storage at 40° C.",up to 30%
same,decomposition of the active ingredient,"[3]; citrate-buffered, storage under refrigeration",approximately 0.7%
same,discoloration of the solutions,"[3]; citrate-buffered, stored at 40° C.","significant yellow discoloration after only 30 days, turning brown after another 60 days"
same,degradation of the active ingredient,[4]; 1% Cremophor ELP,14.3%
same,degradation of the active ingredient,[4]; 10% Cremophor ELP,21.3%
same,remaining active ingredient content,[4]; propylene glycol,92.5%
